The values below come from ChEMBL document CHEMBL4414633, “Investigation of the Factors That Dictate the Preferred Orientation of Lexitropsins in the Minor Groove of DNA” (J Med Chem, 2019).

Active and inactive are the calls of the source. No cut-off for these calls is given here.

A short description of assay [1]: Binding affinity to synthetic d(CGACTAGTCG)2 DNA sequence by NMR analysis.
Assay [2] in a line: Binding affinity to synthetic d(5'-GCGAGTACTCGC-3') DNA sequence assessed as change in heat by ITC assay.
Assay [3] in a line: Binding affinity to synthetic d(5'-GCGACTAGTCGC-3') DNA sequence assessed as change in heat by ITC assay. (In general: Isothermal titration calorimetry measures the heat released or taken up as one component is titrated into another.)

Take `CC(C)c1sc(NC(=O)c2cc(NC(=O)c3cc(NC=O)cn3C)cn2C)nc1C(=O)NCCCN(C)C`: the outcome in assay [1] was Active.
Turning to `CC(C)c1sc(NC(=O)CCCN(C)C)nc1C(=O)Nc1cc(C(=O)Nc2cc(C(N)=O)n(C)c2)n(C)c1`, the result in assay [2] and in assay [3] was inactive.
